The test system of the test is CEM cells HIV-1 protection, formazan growth assay. The experiment in a line: NCI AIDS Antiviral Assay. The settings on record: for IC50: measured here: growth of uninfected CEM cells. The method, boiled down: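 Human CEM cells, uninfected and HIV-1-infected, exposed to five drug concentrations; growth measured by soluble formazan assay and scored as percent protection from infection, with protecting compounds retested.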

SMILES strings stand for the structures. The source made the active and inactive calls.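 Rule for the calls: active = compounds giving half or more protection of infected cells from virus-caused growth loss, again on retest; inactive = the rest.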

The EC50 is the midpoint of the concentration-response curve. In general, IC50 refers to the concentration needed to halve the response being measured.

As for `COC1(OC)CCC2C1C1CCC(OC)(OC)C21` (stereo unspecified), the EC50 was more than 141 µM and the IC50 was more than 141 µM.

As to `[C-]#[O+].[C-]#[O+].[C-]#[O+].[Mo].c1ccc(P(CC[PH+](CC[PH+](CC[PH+](c2ccccc2)c2ccccc2)c2ccccc2)c2ccccc2)c2ccccc2)cc1` (stereo unspecified), the EC50 was more than 6.17 µM and the IC50 is more than 6.17 µM.

With `Cc1ccc2c(c1)C1C(CO2)C(c2ccccc2)=NN1c1ccccc1` (stereo unspecified), the EC50 was more than 105 µM and the IC50 was more than 105 µM.

On to `COc1cc2c(cc1OC)C(Cc1ccccc1NC(=O)c1ccc(C(=O)Nc3ccccc3CC3c4cc(OC)c(OC)cc4CCN3C)cc1)N(C)CC2` (stereo unspecified), for which the outcome was inactive.

Take `CCOC(=O)c1ccc(CS(=O)(=O)c2ccc(Cl)cc2)c([N+](=O)[O-])c1`: the EC50 was more than 49 µM and the IC50 is more than 49 µM.

In the case of `CCOC(=O)/C(=C/c1ccc(C)cc1)C(=O)c1ccccc1`, the EC50 is more than 24.5 µM and the IC50 is 15.1 µM.

For `CNC(=O)N(CCC#N)CCN(C(=O)N(C)C)c1ccccc1`, the EC50 was more than 200 µM and the IC50 is more than 200 µM.

`CC(O)C1CC1(CO)CNc1cc(Cl)nc(N)n1` (stereo unspecified): the EC50 was more than 200 µM and the IC50 is more than 200 µM.

With `CNC(=O)c1cn(C2OC(CO)C(O)C2O)c2ncnc(N)c12` (stereo unspecified), the EC50 is more than 2 µM and the IC50 came to 1.2 µM.

With `COc1ccc(-c2c(C(C)=O)c(C)n(C3OC(CO)C(O)C(O)C3O)c(=S)c2C#N)cc1` (stereo unspecified), the EC50 was more than 200 µM and the IC50 stood at 58.9 µM.

As to `C=CCC1CCN(C=C)C1=O` (stereo unspecified), the EC50 was more than 1660 µM and the IC50 was found to be 1580 µM.

With `CCOc1nc(C(=O)O)cc2ccsc12`, the EC50 is more than 589 µM and the IC50 was 501 µM.

For `COc1ccc(/C=C2\Sc3scc(-c4ccc([N+](=O)[O-])cc4)[n+]3C2=O)cc1OC`, the EC50 is more than 200 µM and the IC50 stood at 15.8 µM.

As to `O=C1C2CN(Cc3ccccc3)CC2C(=O)N1c1ccccc1` (stereo unspecified), the EC50 was more than 200 µM and the IC50 was more than 200 µM.

Regarding `CCOC(=O)C1C(c2ccc([N+](=O)[O-])cc2)NC(c2ccc([N+](=O)[O-])cc2)C(C(=O)OC)S1(=O)=O` (stereo unspecified), the EC50 is more than 3.98 µM and the IC50 was more than 3.98 µM.

`O=CNC12C(=O)NC(=O)C1(C(=O)O)C21CCCCC1` (stereo unspecified): the EC50 was more than 200 µM and the IC50 was more than 200 µM.

`O=C1NS(=O)(=O)c2cc(Cl)ccc21`: the EC50 is more than 1150 µM and the IC50 is more than 1150 µM.

Regarding `Nc1nn2cc3c(nc2c1N=Nc1ccccc1)CCCCC3`, the EC50 is more than 200 µM and the IC50 was more than 200 µM.

As to `CCOC(=O)[C@@H]1CCN2CN(c3ccc(OC)cc3)N=C(c3ccccc3)[C@@]12c1ccccc1`, the EC50 is more than 200 µM and the IC50 amounted to 18.2 µM.

Turning to `C=C/C(C)=C/[C@H](C)C(=O)C[C@H](O)CC1CC(=O)NC(=O)C1`, the result was inactive.

As to `COC1/C=C/OC2(C)Oc3c(C)c(O)c4c(O)c(c(C=NN5CCCCCCCCCCCC5)c(O)c4c3C2=O)NC(=O)/C(C)=C/C=C/C(C)C(O)C(C)C(O)C(C)C(OC(C)=O)C1C` (stereo unspecified), the outcome was inactive.

`N=C(N)CCNC(=O)C1CCC(N)=N1` (stereo unspecified): the EC50 was more than 851 µM and the IC50 was 17 µM.

As for `CC1(c2cccc3ccccc23)OC(=O)c2cccc(F)c21` (stereo unspecified), the EC50 was more than 36.3 µM and the IC50 was found to be 5.89 µM.

With `CCC12CCCN(CCBr)C1c1c(n(C)c3ccccc13)C(C(=O)OC)C2` (stereo unspecified), the EC50 was more than 27.5 µM and the IC50 stood at 13.5 µM.

As to `Cc1cccc2c(N)c3cccc(C(=O)NCC[N+]4(Cc5ccc([N+](=O)[O-])cc5)CCOCC4)c3nc12`, the EC50 was more than 200 µM and the IC50 stood at 30.2 µM.

In the case of `O=S1(=O)N2CN3CN(C2)CN1C3`, the outcome was inactive.

With `CC(=O)NCc1c(C(N)=O)ncn1Cc1ccccc1`, the result was inactive.

With `C[C@H](CCC1=NCCN1)[C@H]1CC[C@H]2[C@@H]3CC[C@@H]4C[C@H](O)CC[C@]4(C)[C@H]3C[C@H](O)[C@]12C`, the EC50 was more than 200 µM and the IC50 came to 11.5 µM.

The values are drawn from PubChem BioAssay AID179 (DTP/NCI, 2004).
